Source: US7966056B2, “Magnetic resonance imaging method and compounds for use in the method” (GE Healthcare AS, priority 2002, dated 2011)

What was measured:
mice = conditions: intravenous injection in mice; cited from earlier work
anaesthetised dogs = test: cardiovascular effects in anaesthetised dogs with and without dobutamine stress (Example 7); type: in vivo; conditions: dobutamine alone, 5-20 μg/kg/min infusion
Method: The cardiovascular effects of MnHPTA with various amounts of Ca^2+ (0, 0.5 and 1 mol Ca^2+ per mol Mn^2+) were investigated in the presence and absence of dobutamine induced pharmacological stress in anaesthetised dogs.
Anaesthesia was induced with pentobarbital (12-25 mg/kg i.v.) and fentanyl (1.5-2.5 μg/kg i.v.), followed by a continuous i.v. infusion of fentanyl (20 μg/kg/h and pentobarbital (10 mg/kg/h). Artificial ventilation was carried out by room air through a tracheal tube, aimed at achieving normal physiological blood gas values. A catheter was introduced through the right femoral artery for measurement of SAP. A microtip pressure transducer catheter (Millar) was placed into the left ventricle through the carotid artery for measurements of LVdP/dt. A Swan-Ganz catheter was introduced through the right femoral vein for measuring PAP (pulmonary arterial pressure). A 3-lead ECG was continuously-monitored. An ultrasonic flow probe was placed around the left femoral artery for flow measurement. Venflon cannulas were introduced into the left and right jugular veins for contrast agent injections and dobutamine infusions, respectively. […]
Systolic, diastolic and mean systemic arterial pressure (SYS, DIA MEAN), LVdP/dt, femoral arterial flow, mean PAP (pulmonary arterial pressure), HR (heart rate) and ECG were continuously monitored and stored by a computer system.

[1] = maximum solubility in water; type: physicochemical
Source text: In the method according to the invention the contrast agent is preferably administered in a bolus injection although slow injection or infusion of the contrast agent is also suitable. For Mn^2+ complexes with low formation constants, e.g. in the area 10^3 to 10^8 there might be a risk that the release of Mn^2+ from the complex may still be sufficiently rapid to induce cardiotoxic reactions in the body. To avoid such toxic reactions, the contrast agent comprising such complexes could be provided in solutions comprising low concentrations of such complexes. If it is preferred to provide the contrast agent in dry form, e.g. as a lyophilized powder, for on site preparation of the solution for injection, complexes with properties that avoid the preparation of high concentration solutions provide an additional advantage. For example the sodium salt of MnTPP, Na3MP3O10, has a limited solubility, thus prohibiting injections of highly concentrated solutions of manganese. […] This injection volume additionally prohibits rapid bolus injections of sodium salts of MnTPP.

Method for myocardium: In an anaesthesed pig, heart rate and systolic/diastolic blood pressure were monitored.
Dobutamine was infused at a dose of 10 μg/kg body weight/min and increased by 10 μg/kg/min every second minute until a PRP (pressure-rate product) of a factor 2.5 was achieved.
10 μmol/kg body weight of MnTPP was injected in a bolus during 4 seconds.
The pig was subjected to imaging at 1.5 T in a clinical scanner. Short axis view images of the myocardium were acquired 45 minutes post injection.

[Ba+2].[Cl-].[Cl-] [BaCl2]
LD50 (mice): 19.2 mg/kg

[Ca+2].[Cl-].[Cl-] [CaCl2]
LD50 (mice): 42.2 mg/kg

CC(CCc1ccc(O)cc1)NCCc1ccc(O)c(O)c1 (stereo not drawn) [Dobutamine, dobutamine]
increase in dP/dt max (anaesthetised dogs): 4 times

O=P([O-])([O-])OP(=O)([O-])OP(=O)([O-])[O-].[Mn+2].[Na+].[Na+].[Na+] [sodium salt of MnTPP]
maximum solubility in water [1]: 23 mM

manganese triphosphate [MnTPP]
clinical signs represented by changes in physiological parameters (myocardium; 10 μmol/kg body weight bolus during 4 seconds, dobutamine stress, anaesthetised pig): No clinical signs represented by changes in physiological parameters were observed | short axis view MR images of the myocardium (myocardium; 10 μmol/kg, 1.5 T, 45 minutes post injection, pig): visualised an underperfused area
